# Results taken from patent US20240165140A1, “MEDICATION FOR INHIBITING DNA-PKCS” (TSINGHUA UNIVERSITY, priority 2017, published 2024).
# B1: ZBP-Endostatin: endostatin variant obtained by adding 9 additional amino acids (MGGSHHHHH) to the N-terminus of natural human endostatin, SEQ ID NO: 3 (protein)
# chain: MGGSHHHHHHSHRDFQPVLHLVALNSPLSGGMRGIRGADFQCFQQARAVGLAGTFRAFLSSRLQDLYSIVRRADRAAVPIVNLKDELLFPSWEALFSGSEGPLKPGARIFSFDGKDVLRHPTWPQKSVWHGSDPNGRRLTESYCETWRTEAPSATGQASSLLGGRLLGQSAASCHHAYIVLCIENSFMTASK
# modifications: The amino acid sequence of ZBP-Endostatin
# B2: PEG-Endostatin: natural human endostatin modified with 20 kDa mPEG-ALD at the N-terminal α-amino group (conjugate)
# chain: MHSHRDFQPVLHLVALNSPLSGGMRGIRGADFQCFQQARAVGLAGTFRAFLSSRLQDLYSIVRRADRAAVPIVNLKDELLFPSWEALFSGSEGPLKPGARIFSFDGKDVLRHPTWPQKSVWHGSDPNGRRLTESYCETWRTEAPSATGQASSLLGGRLLGQSAASCHHAYIVLCIENSFMTASK
# Assays:
# [1] = tested on: tumor cells with normal P53 function (H1299-P53 and A549-NC); assay: CCK8 cell activity, tumor cells with normal P53 function; type: cell-based
# Procedure: (§1) First, a lentivirus kit (purchased from Shanghai Genepharma) was used to construct a P53 stably overexpressing H1299 cell line (H1299-P53) and a P53 stably knockdown A549 cell line […]. The P53 sequence targeted by the shRNA used to knock down P53 in A549 cells was 5′-[…]-3′ (SEQ ID NO: 4). Virus transfection and the construction of stable cell lines were performed according to the kit instructions. […] After treatment for 12 hours, the drug-containing medium was replaced with a normal medium and the cells were further cultured for 72 hours. Cell activity was measured according to the instructions of the CCK8 kit (Dojindo, Tokyo, Japan).
# In this example, another chemical drug, Doxorubicin, was used to verify that Endostatin can enhance the sensitivity of P53-deficient tumor cells to chemotherapy. Operation process was the same as in Example 5.
# [2] = tested on: DNA-PKcs signaling pathway; assay: Immunoblotting of DNA-PKcs signaling pathway activation induced by chemotherapeutic agent; type: cell-based; conditions: H1299 and A549 cells; for Level of the DNA-PKcs signaling pathway (p-DNA-PKcs (S2056), p-AKT (S473), p-P53 (S15)): single agent 1 h (Etoposide 10 μM, Endostatin 10 μg/ml, NU7026 10 μM); for Activation of the DNA-PKcs signaling pathway by Etoposide (p-DNA-PKcs (S2056), p-AKT (S473)): 10 μg/ml added 1 h before Etoposide 10 μM
# Source text: Tumor cells (including non-small cell lung cancer H1299 and A549 cells) were divided into six treatment groups.
# Tumor cells (including H1299 and A549 cells) were divided into six treatment groups.
# [3] = tested on: H1299 and A549 cells; assay: Annexin V-FITC/PI apoptosis by flow cytometry with DNA-PKcs siRNA knockdown; type: cell-based; conditions: A549 (P53 wild-type) versus H1299 (P53-deficient); 1 μM versus 10 μM, 16 h
# Procedure: In this example, tumor cells (including H1299 and A549 cells) were divided into eight treatment groups. In the first four groups, cells were transfected with control siRNA, and in the last four groups, cells were transfected with siRNA that specifically knocked down DNA-PKcs. The siRNA sequence of DNA-PKcs is: forward 5′-[…]-3′ (SEQ ID NO: 5), reverse 5′-[…]-3′ (SEQ ID NO: 6). The siRNA transfection method was performed according to the instructions of the transfection reagent Lipofectamine 2000. Then, in the eight groups, the cells were treated with drugs. […] Cells were collected and operations were performed according to the instructions of Annexin V-FITC/PI Apoptosis Detection Kit. Apoptosis was detected by flow cytometry. A549 cells were P53 wild-type cells, and H1299 cells were P53-deficient cells.
# [4] = tested on: tumor cells with normal P53 function (H1299-P53, A549-NC); assay: Cell colony formation, tumor cells with normal P53 function; type: cell-based; conditions: Etoposide 1 μM, 16 h; colonies after 14 days
# Procedure: After the treatment, the cells were digested with trypsin, counted, and re-plated in a six-well plate with 1000 cells per well. The cells were cultured in a normal medium for 14 days to form cell colonies.
# [5] = tested on: tumor cells with normal P53 function (H1299-P53, A549-NC); assay: PI staining apoptosis by flow cytometry, tumor cells with normal P53 function; type: cell-based; conditions: Etoposide 1 μM, 16 h
# Procedure: The apoptotic cells and adherent cells floating in the culture medium were collected, and the cells were suspended in 500 μl PBS containing 0.05 mg/ml propidium iodide (PI), stained for 15 min at room temperature in dark, and detected by flow cytometry (BD FACS Calibur). PI-positive cells represent apoptotic cells.
# [6] = tested on: A375 cells; assay: CCK8 cell activity, melanoma A375; type: cell-based; conditions: A375 (P53 wild type); Etoposide; operation process as in Example 5
# Procedure: as §1
# This example used two cell lines of another tumor type (melanoma), the MDA-MB-435S (P53 mutant) and A375 (P53 wild type) cell lines, to verify the regulatory function of Endostatin on the chemotherapeutic sensitivity of other types of tumor cells with different P53 status. Operation process was the same as in Example 5.
# [7] = tested on: mRNA levels of BAX, NOXA, PUMA, and P21; assay: Real-time PCR of pro-apoptotic molecules, tumor cells with normal P53 function; type: cell-based; conditions: H1299-P53, A549-NC; Etoposide 1 μM, 16 h
# Procedure: After the cells were treated as described above, the total RNA of the cells was extracted, and the relative changes in mRNA levels of BAX, NOXA, PUMA, and P21 in the cells were detected by real-time PCR.
# [8] = tested on: H1299-NC tumor; assay: Subcutaneous tumor growth in nude mice, H1299-NC; type: in vivo; conditions: Day 19, compared with control group, Endostatin 20 mg/kg i.p. once a day, Etoposide 2 mg/kg i.p. once every two days
# Procedure: (§2) Tumor-bearing nude mice were randomly divided into four groups with 6 to 8 animals for each group, and different drug treatments were performed. […] Tumor volume was measured every other day. 2 to 4 weeks after administration, the mice were sacrificed and the tumor tissue was removed for further use.
# [9] = tested on: A549-shP53 tumor; assay: Subcutaneous tumor growth in nude mice, A549-shP53; type: in vivo; conditions: A549-shP53, Day 27; compared with control group; Endostatin 20 mg/kg i.p. once a day, Etoposide 2 mg/kg i.p. once every two days
# Procedure: as §2
# [10] = tested on: H1299-P53 tumor; assay: Subcutaneous tumor growth in nude mice, H1299-P53; type: in vivo; conditions: H1299-P53, Day 19; compared with control group; Endostatin 20 mg/kg i.p. once a day, Etoposide 2 mg/kg i.p. once every two days
# Procedure: as §2
# [11] = tested on: A549-NC tumor; assay: Subcutaneous tumor growth in nude mice, A549-NC; type: in vivo; conditions: Day 27, compared with control group, Endostatin 20 mg/kg i.p. once a day, Etoposide 2 mg/kg i.p. once every two days
# Procedure: as §2
# [12] = tested on: H1299 mouse tumor model; assay: Survival of H1299 tumor-bearing mice; type: in vivo; conditions: administration as in Example 12, stopped after 25 days
# Procedure: as §2
# (§3) H1299 and A549 cells were cultured in a vigorous and proliferative state, and tumor collection, grouping, and administration methods were the same as in Example 12. The administration was stopped after 25 days, and the survival of the mice was recorded daily, and the survival curve of the mice was plotted.
# [13] = tested on: A549 tumor-bearing mice (normal P53 function); assay: Survival of A549 tumor-bearing mice; type: in vivo; conditions: A549, normal P53 function (FIG. 13B); compared with control group; administration as in Example 12, stopped after 25 days
# Procedure: as §2, §3
# [14] = tested on: PCNA and DNA-PKcs protein in H1299-NC and A549-shP53 tumor tissues; assay: Immunofluorescence of PCNA and DNA-PKcs in tumor tissue, P53-deficient mouse tumor model; type: in vivo, nude mice; conditions: H1299-NC and A549-shP53 tumors of Example 12; quantitative immunofluorescence
# Procedure: as §2
# (§4) The tumor tissue removed in Example 12 was fixed and embedded, and then sectioned. PCNA (a marker molecule indicating the vigorous proliferation status of tumor cells) and DNA-PKcs protein in tumor tissues were stained by immunofluorescence technique, and were observed and imaged with a laser confocal microscope (Nikon A1). The experimental results are shown in FIG. 14A-14D, in which blue represents the nucleus of DAPI-stained cells, green represents the DNA-PKcs protein, and red represents the PCNA protein. Taking the H1299-NC tumor tissue shown in FIG. 14A as an example, the first column on the left represents DNA-PKcs single staining, and the green area represents the DNA-PKcs protein expression level. The second column on the left represents the results of DNA-PKcs (green) merged with nucleus (blue), and the overlapping part is shown in cyan. The third column on the left represents PCNA single staining, and the red area represents the PCNA protein expression level, indicating the strength of tumor cell proliferation. […]
# [15] = tested on: PCNA and DNA-PKcs protein in H1299-P53 and A549-NC tumor tissues; assay: Immunofluorescence of PCNA and DNA-PKcs in tumor tissue, mouse tumor model with normal P53 function; type: in vivo, nude mice; conditions: H1299-P53 and A549-NC tumors of Example 12; quantitative immunofluorescence
# Procedure: as §2, §4
# [16] = tested on: DNA-PKcs, PARP, γH2AX and Caspase-3 signaling pathways; assay: Immunoblotting of DNA damage and apoptotic pathway, P53-deficient tumor cells; type: cell-based; conditions: H1299-NC, A549-shP53; Endostatin 10 μg/ml, Etoposide 10 μM 16 h, z-DEVD-fmk 10 μM; Endostatin and z-DEVD-fmk added 1 h before Etoposide
# Source text: In this example, tumor cells (H1299-NC, H1299-P53, A549-NC, A549-shP53) were divided into six treatment groups.
molecule,measurement,setting,value
"COc1cccc2c1C(=O)c1c(O)c3c(c(O)c1C2=O)C[C@@](O)(C(=O)CO)C[C@@H]3O[C@H]1C[C@H](N)[C@H](O)[C@H](C)O1 [Doxorubicin, reference compound]",Activity of tumor cells,"[1]; Doxorubicin, operation process as in Example 5",could significantly inhibit the activity of tumor cells
"COc1cc([C@@H]2c3cc4c(cc3[C@@H](O[C@@H]3O[C@@H]5CO[C@@H](C)O[C@H]5[C@H](O)[C@H]3O)[C@H]3COC(=O)[C@H]23)OCO4)cc(OC)c1O [Etoposide, reference compound]","Level of the DNA-PKcs signaling pathway (p-DNA-PKcs (S2056), p-AKT (S473))","[2]; Example 15, Etoposide 10 μM, 1 h, compared with control group",activated the level of the DNA-PKcs signaling pathway in H1299 and A549 cells
same,"Level of the DNA-PKcs signaling pathway (p-DNA-PKcs (S2056), p-AKT (S473), p-P53 (S15))",[2]; compared with control group,activated the level of the DNA-PKcs signaling pathway
same,Sensitivity of cells to the chemotherapeutic agent (apoptosis),[3],A549 cells were more sensitive to the chemotherapeutic agent
same,Activity of tumor cells,"[1]; Etoposide 0, 0.1, 1, 10 μM, 12 hours treatment, 72 hours further culture",could significantly inhibit the activity of tumor cells
same,Colony-forming ability of tumor cells,[4],could significantly inhibit the colony-forming ability of tumor cells
same,Apoptosis of tumor cells (PI-positive cells),[5],could significantly promote the apoptosis of tumor cells
same,Activity of tumor cells,[6],could significantly inhibit the activity of tumor cells
same,"mRNA levels of pro-apoptotic molecules BAX, NOXA, PUMA, P21",[7],could significantly up-regulate the above pro-apoptotic molecules
same,tumor suppression rate,[8],28.0%
same,tumor suppression rate,[9],39.3%
same,tumor suppression rate,[10],30.0%
same,tumor suppression rate,[11],34.0%
same,median survival time longer than that of the control group,[12],30.3%
same,Survival time of mice,[13],could prolong the survival time of the mice to some extent
same,Tumor cell proliferation (PCNA) and protein level of DNA-PKcs in tumor tissue,[14],can attenuate tumor cell proliferation to a certain extent and reduce the protein level of DNA-PKcs
same,Tumor cell proliferation (PCNA) and protein level of DNA-PKcs in tumor tissue,[15],could reduce the proliferation of tumor cells and reduce the protein level of DNA-PKcs
"O=c1cc(N2CCOCC2)oc2c1ccc1ccccc12 [NU7026, reference compound]","Level of the DNA-PKcs signaling pathway (p-DNA-PKcs (S2056), p-AKT (S473), p-P53 (S15))",[2]; compared with control group,did not affect the level of the DNA-PKcs signaling pathway
z-DEVD-fmk [reference compound],"DNA-PKcs, PARP, γH2AX and Caspase-3 signaling pathway levels",[16],could reverse the synergistic effect of Endostatin and Etoposide to some extent
B1,"Activation of the DNA-PKcs signaling pathway by Etoposide (p-DNA-PKcs (S2056), p-AKT (S473))","[2]; Example 15, 1 h",inhibited the activation of the DNA-PKcs signaling pathway by Etoposide
B2,"Activation of the DNA-PKcs signaling pathway by Etoposide (p-DNA-PKcs (S2056), p-AKT (S473))","[2]; Example 15, 1 h",inhibited the activation of the DNA-PKcs signaling pathway by Etoposide
